In patent US9695162B2, “Sweet flavor modifier” (SENOMYX, INC., priority 2013, dated 2017):

What was measured:
[1] = tested on: human panelists (sweet taste); experiment: Paired comparison taste test: enhancement of sucrose at pH 7.1 (6% sucrose + compound vs. 10%, 11% or 12% sucrose); type: in vivo
Procedure: (§1) Experiment 1: Sweet Flavor and Sweet Flavor Enhancement Measurement Using Human Panelists Conducting a Paired Comparison Test
(§2) Test samples containing experimental compounds were presented in pairs to the panelist and they were asked to determine which of the sample is sweeter. […] A group of 10-16 or more panelists participated in each test. Subjects refrained from eating or drinking (except water) for at least 1 hour prior to the test. Subjects rinsed with water several times to clean the mouth.
(§3) Taste tests were performed with sucrose or HFCS as the sweetener in the presence or absence of compound. A 0.2% stock solution of compound in water with sodium bicarbonate was prepared and then this stock solution was diluted in the final sample to achieve the targeted final concentration of compound. For the sample evaluated at pH 2.8 the pH of the solution is decreased to about pH 2.8 using citric acid. Taste samples were also prepared in a low sodium phosphate buffer (pH 7.1; “LSB”) lacking sucrose or HFCS to evaluate the taste of the compound alone. Low sodium phosphate buffer consists of 0.3 mM KCl, 0.5 mM Na2HPO4, and 0.175 mM KH2PO4. Sample volumes are usually 20 ml.
(§4) In one paired comparison test, the panelist was presented with two different samples and asked to identify the sample which is sweeter. The samples within a paired comparison test were presented in a randomized, counterbalanced order. Panelists had up to a 1 minute delay between taste tests to clear the mouth of any tastes.
(§5) Binomial probability tables were used to determine the probability of the correct number of responses occurring for each test at alpha=0.05

[2] = tested on: human panelists (sweet taste); experiment: Paired comparison taste test: enhancement of sucrose at pH 2.8 (6% sucrose + compound vs. 10%, 11% or 12% sucrose); type: in vivo
Procedure: as §1, §2, §3, §4, §5

[3] = tested on: human panelists (sweet taste); experiment: Paired comparison taste test: enhancement of HFCS at pH 2.8 (6% HFCS + compound vs. 8% or 9% HFCS); type: in vivo
Procedure: as §1, §2, §3
In one paired comparison test, the panelist was presented with two different samples and asked to identify the sample which is sweeter. […]

[4] = tested on: human panelists (sweet taste); experiment: Sweetness threshold: paired comparison taste test, LSB + compound vs. 1% sucrose; type: in vivo
Procedure: as §1, §2, §3, §4, §5

[5] = 10% Sucrose vs 6% Sucrose + 10 ppm Compound A1, n = 32 (16 panelists × 2 reps)
[6] = 11% Sucrose vs 6% Sucrose + 5 ppm Compound A1, n = 33
[7] = 1% Sucrose vs LSB + 25 ppm Compound A1, n = 26 (13 panelists × 2 reps)

| melting point | SMILES | Sample selected as sweeter by panelists (Total) [1, 5] | Sample selected as sweeter by panelists (Total) [2, 6] | Sample selected as sweeter by panelists (Total) [4, 7] | other results |
| --- | --- | --- | --- | --- | --- |
| > 200 °C | CC(C)(COc1cccc2c1C(N)=NS(=O)(=O)N2)NC(=O)c1ccnc(-n2cnc(CO)c2)c1 [Example 36, N-(1-((4-amino-2,2-dioxido-1H-benzo[c][1,2,6]thiadiazin-5-yl)oxy)-2-methylpropan-2-yl)-2-(4-(hydroxymethyl)-1H-imidazol-1-yl)isonicotinamide] |  |  |  |  |
| > 200 °C | CC(C)(COc1cccc2c1C(N)=NS(=O)(=O)N2)NC(=O)c1ccnc(-n2cnc(C(=O)O)c2)c1 [Example 37, 1-(4-((1-((4-amino-2,2-dioxido-1H-benzo[c][1,2,6]thiadiazin-5-yl)oxy)-2-methylpropan-2-yl)carbamoyl)pyridine-2yl)1H-imidazole-4-carboxylic acid] |  |  |  |  |

Further lines, the molecule ahead of its results:

| SMILES | melting point | Sample selected as sweeter by panelists (Total) [1, 5] | Sample selected as sweeter by panelists (Total) [2, 6] | Sample selected as sweeter by panelists (Total) [4, 7] | other results |
| --- | --- | --- | --- | --- | --- |
| CC(C)(COc1cccc2c1C(N)=NS(=O)(=O)N2)NC(=O)c1ccnc(-n2ccnc2N)c1.Cl | 235 to 237 °C (dec.) |  |  |  |  |
| CC(C)(COc1cccc2c1C(N)=NS(=O)(=O)N2)NC(=O)c1ccncc1 [Compound A1, N-(1-(4-amino-2,2-dioxido-1H-benzo[c][1,2,6]thiadiazin-5-yloxy)-2-methylpropan-2-yl)isonicotinamide] |  | 18 | 12 | 12 | Sucrose solution of equivalent sweetness (% sucrose) ([1]; 10 ppm compound in 6% sucrose): ~10%; Sucrose solution of equivalent sweetness (% sucrose) ([2]; 5 ppm compound in 6% sucrose): ~11%; HFCS solution of equivalent sweetness (% High Fructose Corn Syrup) ([3]; 5 ppm compound in 6% High Fructose Corn Syrup): ~9%; Sample selected as sweeter by panelists (Total) ([3]; 9% High Fructose Corn Syrup vs 6% High Fructose Corn Syrup + 20 ppm Compound A1, n = 32 (16 panelists × 2 reps)): 12 |
| OC[C@H]1O[C@@](CO)(O[C@H]2O[C@H](CO)[C@@H](O)[C@H](O)[C@H]2O)[C@@H](O)[C@@H]1O [Sucrose, sucrose, reference compound] |  | 14 | 21 | 14 | Sample selected as sweeter by panelists (Total) ([1]; 11% Sucrose vs 6% Sucrose + 5 ppm Compound A6, n = 48 (16 panelists × 3 reps)): 24; Sample selected as sweeter by panelists (Total) ([2]; 12% Sucrose vs 6% Sucrose + 5 ppm Compound A6, n = 48 (16 panelists × 3 reps)): 22; Sample selected as sweeter by panelists (Total) ([4]; 1% Sucrose vs LSB + 10 ppm Compound A6, n = 30 (10 panelists × 3 reps)): 18 |
